Results: paper PMC6154583, “Optimized 4,5-Diarylimidazoles as Potent/Selective Inhibitors of Protein Kinase CK1δ and Their Structural Relation to p38α MAPK” (Molecules : A Journal of Synthetic Chemistry and Natural …, 2017)

Tests used:
Assay in all cases: ProQinase 33PanQinase selectivity profiling
Type in all cases: biochemical
ABL1 = ABL1 (Homo sapiens, UniProt P00519); details: 100 nM, relative to control, read-out: Residual activity (%)
ABL2 = ABL2 (Homo sapiens, UniProt P42684); details: 100 nM, relative to control, read-out: Residual activity (%)
ACV-R2A = molecular target: T1, ACV-R2A (Homo sapiens, UniProt P27037); details: 100 nM, relative to control, read-out: Residual activity (%)
T1 construct: purchased ProQinase GmbH (Freiburg, Germany)

ALK (GST-HIS-tag) = molecular target: T2, ALK (GST-HIS-tag) (Homo sapiens, UniProt Q9UM73); details: 100 nM, relative to control, read-out: Residual activity (%)
T2 construct: GST; HIS; purchased ProQinase GmbH (Freiburg, Germany)

ARK5 = ARK5 (Homo sapiens, UniProt O60285); details: 100 nM, relative to control, read-out: Residual activity (%)
Sequence of ARK5 (O60285 whole entry): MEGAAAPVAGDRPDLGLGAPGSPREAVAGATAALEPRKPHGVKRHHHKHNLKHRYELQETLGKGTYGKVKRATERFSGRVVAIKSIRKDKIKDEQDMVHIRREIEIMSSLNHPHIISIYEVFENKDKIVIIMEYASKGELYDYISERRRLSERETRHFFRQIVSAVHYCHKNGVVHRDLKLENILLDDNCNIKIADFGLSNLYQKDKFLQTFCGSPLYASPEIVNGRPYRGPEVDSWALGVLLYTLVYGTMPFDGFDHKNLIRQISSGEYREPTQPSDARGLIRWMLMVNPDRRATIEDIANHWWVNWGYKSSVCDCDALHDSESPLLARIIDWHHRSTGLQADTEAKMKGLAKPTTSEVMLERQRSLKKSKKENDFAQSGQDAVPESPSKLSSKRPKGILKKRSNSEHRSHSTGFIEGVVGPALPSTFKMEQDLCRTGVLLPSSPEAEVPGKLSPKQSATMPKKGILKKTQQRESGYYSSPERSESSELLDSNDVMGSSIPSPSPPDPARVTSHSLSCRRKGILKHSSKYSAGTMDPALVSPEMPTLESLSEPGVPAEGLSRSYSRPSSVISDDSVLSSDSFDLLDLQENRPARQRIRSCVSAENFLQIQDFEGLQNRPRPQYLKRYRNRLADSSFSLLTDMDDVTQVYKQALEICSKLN

Aurora-A = Aurora-A (Homo sapiens, UniProt O14965); details: 100 nM, relative to control, read-out: Residual activity (%)
Sequence of Aurora-A (O14965 whole entry): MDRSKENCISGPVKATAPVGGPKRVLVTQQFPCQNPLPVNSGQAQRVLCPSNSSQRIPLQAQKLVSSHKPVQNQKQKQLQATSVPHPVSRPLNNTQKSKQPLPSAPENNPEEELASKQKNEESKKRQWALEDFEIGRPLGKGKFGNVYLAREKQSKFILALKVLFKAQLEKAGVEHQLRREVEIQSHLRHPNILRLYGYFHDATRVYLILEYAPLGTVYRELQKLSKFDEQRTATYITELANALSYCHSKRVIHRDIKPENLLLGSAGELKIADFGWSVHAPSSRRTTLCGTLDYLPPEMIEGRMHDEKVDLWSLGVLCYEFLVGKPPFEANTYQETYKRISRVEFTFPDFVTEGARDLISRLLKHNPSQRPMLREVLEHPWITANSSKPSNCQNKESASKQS

AXL = molecular target: T3, AXL (Homo sapiens, UniProt P30530); details: 100 nM, relative to control, read-out: Residual activity (%)
T3 construct: purchased ProQinase GmbH (Freiburg, Germany)

BTK = BTK (Homo sapiens, UniProt Q06187); details: 100 nM, relative to control, read-out: Residual activity (%)
CAMK1D = CAMK1D (Homo sapiens, UniProt Q8IU85); details: 100 nM, relative to control, read-out: Residual activity (%)
CAMK2A = CAMK2A (Homo sapiens, UniProt Q9UQM7); details: 100 nM, relative to control, read-out: Residual activity (%)
Sequence of CAMK2A (Q9UQM7 whole entry): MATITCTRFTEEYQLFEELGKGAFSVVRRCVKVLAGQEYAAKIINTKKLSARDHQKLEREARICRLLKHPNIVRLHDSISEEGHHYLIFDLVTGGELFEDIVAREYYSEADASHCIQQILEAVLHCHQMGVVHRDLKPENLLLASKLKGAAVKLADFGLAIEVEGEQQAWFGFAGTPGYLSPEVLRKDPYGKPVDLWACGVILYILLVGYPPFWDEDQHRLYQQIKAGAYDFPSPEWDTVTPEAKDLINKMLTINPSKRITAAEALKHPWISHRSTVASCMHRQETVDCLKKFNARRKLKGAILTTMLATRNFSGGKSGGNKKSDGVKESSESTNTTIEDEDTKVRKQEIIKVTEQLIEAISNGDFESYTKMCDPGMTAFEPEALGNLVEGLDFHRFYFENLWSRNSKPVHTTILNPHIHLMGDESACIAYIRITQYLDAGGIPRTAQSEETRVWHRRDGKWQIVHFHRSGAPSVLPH

CAMK2B = CAMK2B (Homo sapiens, UniProt Q13554); details: 100 nM, relative to control, read-out: Residual activity (%)
Sequence of CAMK2B (Q13554 whole entry): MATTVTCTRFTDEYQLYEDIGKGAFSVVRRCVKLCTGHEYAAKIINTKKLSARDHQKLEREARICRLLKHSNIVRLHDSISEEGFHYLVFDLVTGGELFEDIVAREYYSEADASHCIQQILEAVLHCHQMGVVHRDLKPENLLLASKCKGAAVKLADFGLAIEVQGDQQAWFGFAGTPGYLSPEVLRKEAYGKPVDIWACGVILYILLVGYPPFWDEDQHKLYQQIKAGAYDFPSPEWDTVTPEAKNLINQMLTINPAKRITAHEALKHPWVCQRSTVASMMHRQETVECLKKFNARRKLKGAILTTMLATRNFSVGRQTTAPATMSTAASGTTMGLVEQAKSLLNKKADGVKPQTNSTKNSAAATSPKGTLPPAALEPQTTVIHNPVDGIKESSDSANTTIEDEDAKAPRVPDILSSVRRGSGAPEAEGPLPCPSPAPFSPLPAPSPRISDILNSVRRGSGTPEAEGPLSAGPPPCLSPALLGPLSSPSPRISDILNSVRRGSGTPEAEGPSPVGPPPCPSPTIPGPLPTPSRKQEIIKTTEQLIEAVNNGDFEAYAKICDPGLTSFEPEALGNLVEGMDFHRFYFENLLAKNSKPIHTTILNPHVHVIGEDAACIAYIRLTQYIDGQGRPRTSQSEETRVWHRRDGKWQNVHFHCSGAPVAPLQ

CAMK2D = CAMK2D (Homo sapiens, UniProt Q13557); details: 100 nM, relative to control, read-out: Residual activity (%)
CAMK2G = CAMK2G (Homo sapiens, UniProt Q13555); details: 100 nM, relative to control, read-out: Residual activity (%)
CAMK4 = CAMK4 (Homo sapiens, UniProt Q16566); details: 100 nM, relative to control, read-out: Residual activity (%)
CDC42BPA = molecular target: T4, CDC42BPA (Homo sapiens, UniProt Q5VT25); details: 100 nM, relative to control, read-out: Residual activity (%)
T4 construct: purchased ProQinase GmbH

CDC42BPB = molecular target: T5, CDC42BPB (Homo sapiens, UniProt Q9Y5S2); details: 100 nM, relative to control, read-out: Residual activity (%)
T5 construct: purchased ProQinase GmbH

CDK1/CycA2 = CDK1/CycA2 (Homo sapiens, UniProt P06493); details: 100 nM, relative to control, read-out: Residual activity (%)
CDK1/CycB1 = CDK1/CycB1 (Homo sapiens, UniProt P06493); details: 100 nM, relative to control, read-out: Residual activity (%)
CDK1/CycE1 = CDK1/CycE1 (Homo sapiens, UniProt P06493); details: 100 nM, relative to control, read-out: Residual activity (%)
CDK2/CycA2 = CDK2/CycA2 (Homo sapiens, UniProt P24941); details: 100 nM, relative to control, read-out: Residual activity (%)
CDK2/CycE1 = CDK2/CycE1 (Homo sapiens, UniProt P24941); details: 100 nM, relative to control, read-out: Residual activity (%)
CDK4/CycD1 = CDK4/CycD1 (Homo sapiens, UniProt P11802); details: 100 nM, relative to control, read-out: Residual activity (%)
CDK4/CycD3 = CDK4/CycD3 (Homo sapiens, UniProt P11802); details: 100 nM, relative to control, read-out: Residual activity (%)
CDK9/CycK = CDK9/CycK (Homo sapiens, UniProt P50750); details: 100 nM, relative to control, read-out: Residual activity (%)
CDK9/CycT1 = CDK9/CycT1 (Homo sapiens, UniProt P50750); details: 100 nM, relative to control, read-out: Residual activity (%)
CHK2 = molecular target: T6, CHK2 (Homo sapiens, UniProt O96017); details: 100 nM, relative to control, read-out: Residual activity (%)
T6 construct: purchased ProQinase GmbH

CK1-gamma3 = CK1-gamma3 (Homo sapiens, UniProt Q9Y6M4); details: 100 nM, relative to control
Sequence of CK1-gamma3 (Q9Y6M4 whole entry): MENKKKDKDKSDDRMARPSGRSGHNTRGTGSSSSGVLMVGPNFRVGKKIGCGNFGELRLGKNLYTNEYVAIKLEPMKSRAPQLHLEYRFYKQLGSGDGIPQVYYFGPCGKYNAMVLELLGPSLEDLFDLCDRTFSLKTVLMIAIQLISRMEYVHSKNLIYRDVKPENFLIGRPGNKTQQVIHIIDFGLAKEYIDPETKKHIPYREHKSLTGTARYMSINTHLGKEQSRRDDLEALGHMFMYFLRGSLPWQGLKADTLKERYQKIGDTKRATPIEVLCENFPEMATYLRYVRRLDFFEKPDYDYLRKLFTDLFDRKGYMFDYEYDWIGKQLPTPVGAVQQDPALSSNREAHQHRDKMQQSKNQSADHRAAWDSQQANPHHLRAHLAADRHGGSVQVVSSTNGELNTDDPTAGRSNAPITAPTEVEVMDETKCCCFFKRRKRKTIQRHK

CK2-alpha1 = CK2-alpha1 (Homo sapiens, UniProt P68400); details: 100 nM, relative to control, read-out: Residual activity (%)
CK2-alpha2 = CK2-alpha2 (Homo sapiens, UniProt P19784); details: 100 nM, relative to control, read-out: Residual activity (%)
CLK1 = CLK1 (Homo sapiens, UniProt P49759); details: 100 nM, relative to control, read-out: Residual activity (%)
CSF1-R = molecular target: T7, CSF1-R (Homo sapiens, UniProt P07333); details: 100 nM, relative to control, read-out: Residual activity (%)
T7 construct: purchased ProQinase GmbH

DAPK1 = DAPK1 (Homo sapiens, UniProt P53355); details: 100 nM, relative to control, read-out: Residual activity (%)
DYRK1B = DYRK1B (Homo sapiens, UniProt Q9Y463); details: 100 nM, relative to control, read-out: Residual activity (%)
DYRK2 = DYRK2 (Homo sapiens, UniProt Q92630); details: 100 nM, relative to control, read-out: Residual activity (%)
DYRK3 = DYRK3 (Homo sapiens, UniProt O43781); details: 100 nM, relative to control, read-out: Residual activity (%)
EEF2K = EEF2K (Homo sapiens, UniProt O00418); details: 100 nM, relative to control, read-out: Residual activity (%)
EGF-R = EGF-R (Homo sapiens, UniProt P00533); details: 100 nM, relative to control, read-out: Residual activity (%)
Sequence of EGF-R (P00533 25-1210): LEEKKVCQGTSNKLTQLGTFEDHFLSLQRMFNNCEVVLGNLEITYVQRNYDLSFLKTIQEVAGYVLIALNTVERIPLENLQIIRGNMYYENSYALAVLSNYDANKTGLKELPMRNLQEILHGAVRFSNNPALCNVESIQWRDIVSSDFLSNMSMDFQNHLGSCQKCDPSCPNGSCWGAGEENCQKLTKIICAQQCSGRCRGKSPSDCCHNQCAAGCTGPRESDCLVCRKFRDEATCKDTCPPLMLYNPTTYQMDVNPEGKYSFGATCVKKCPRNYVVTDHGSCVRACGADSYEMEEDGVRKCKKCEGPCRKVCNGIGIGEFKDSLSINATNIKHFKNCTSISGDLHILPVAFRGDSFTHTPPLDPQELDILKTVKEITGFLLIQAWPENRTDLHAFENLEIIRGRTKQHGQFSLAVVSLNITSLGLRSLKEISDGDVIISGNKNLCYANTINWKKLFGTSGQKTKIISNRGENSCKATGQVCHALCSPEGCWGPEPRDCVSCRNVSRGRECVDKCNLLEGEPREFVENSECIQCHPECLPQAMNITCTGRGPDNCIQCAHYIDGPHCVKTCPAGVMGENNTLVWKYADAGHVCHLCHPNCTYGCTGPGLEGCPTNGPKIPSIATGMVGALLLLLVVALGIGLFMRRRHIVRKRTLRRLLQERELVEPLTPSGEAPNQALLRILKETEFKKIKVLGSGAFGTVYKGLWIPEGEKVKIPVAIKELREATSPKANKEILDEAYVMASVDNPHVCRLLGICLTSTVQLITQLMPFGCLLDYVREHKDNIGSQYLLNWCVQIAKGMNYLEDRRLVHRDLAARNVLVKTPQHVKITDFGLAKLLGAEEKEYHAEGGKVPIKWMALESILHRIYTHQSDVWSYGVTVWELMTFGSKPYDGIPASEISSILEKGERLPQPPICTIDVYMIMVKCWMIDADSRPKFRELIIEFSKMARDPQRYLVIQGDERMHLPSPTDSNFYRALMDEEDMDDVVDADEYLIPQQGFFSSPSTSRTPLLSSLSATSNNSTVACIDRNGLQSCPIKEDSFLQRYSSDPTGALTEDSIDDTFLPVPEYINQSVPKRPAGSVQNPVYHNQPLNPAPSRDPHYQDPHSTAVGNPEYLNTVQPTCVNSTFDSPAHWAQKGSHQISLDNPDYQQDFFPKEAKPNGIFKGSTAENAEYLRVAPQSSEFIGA

EIF2AK3 = molecular target: T8, EIF2AK3 (Homo sapiens, UniProt Q9NZJ5); details: 100 nM, relative to control, read-out: Residual activity (%)
T8 construct: purchased ProQinase GmbH

EPHA1 = EPHA1 (Homo sapiens, UniProt P21709); details: 100 nM, relative to control, read-out: Residual activity (%)
EPHA2 = EPHA2 (Homo sapiens, UniProt P29317); details: 100 nM, relative to control, read-out: Residual activity (%)
p38α MAPK = p38α MAPK (Homo sapiens, UniProt Q16539); details: 100 nM, relative to control, read-out: residual activity
JNK3 = JNK3 (Homo sapiens, UniProt P53779); details: 100 nM, relative to control, read-out: residual activity
LCK = LCK (Homo sapiens, UniProt P06239); details: 100 nM, relative to control, read-out: residual activity

Sequence of ABL1 (P00519 whole entry): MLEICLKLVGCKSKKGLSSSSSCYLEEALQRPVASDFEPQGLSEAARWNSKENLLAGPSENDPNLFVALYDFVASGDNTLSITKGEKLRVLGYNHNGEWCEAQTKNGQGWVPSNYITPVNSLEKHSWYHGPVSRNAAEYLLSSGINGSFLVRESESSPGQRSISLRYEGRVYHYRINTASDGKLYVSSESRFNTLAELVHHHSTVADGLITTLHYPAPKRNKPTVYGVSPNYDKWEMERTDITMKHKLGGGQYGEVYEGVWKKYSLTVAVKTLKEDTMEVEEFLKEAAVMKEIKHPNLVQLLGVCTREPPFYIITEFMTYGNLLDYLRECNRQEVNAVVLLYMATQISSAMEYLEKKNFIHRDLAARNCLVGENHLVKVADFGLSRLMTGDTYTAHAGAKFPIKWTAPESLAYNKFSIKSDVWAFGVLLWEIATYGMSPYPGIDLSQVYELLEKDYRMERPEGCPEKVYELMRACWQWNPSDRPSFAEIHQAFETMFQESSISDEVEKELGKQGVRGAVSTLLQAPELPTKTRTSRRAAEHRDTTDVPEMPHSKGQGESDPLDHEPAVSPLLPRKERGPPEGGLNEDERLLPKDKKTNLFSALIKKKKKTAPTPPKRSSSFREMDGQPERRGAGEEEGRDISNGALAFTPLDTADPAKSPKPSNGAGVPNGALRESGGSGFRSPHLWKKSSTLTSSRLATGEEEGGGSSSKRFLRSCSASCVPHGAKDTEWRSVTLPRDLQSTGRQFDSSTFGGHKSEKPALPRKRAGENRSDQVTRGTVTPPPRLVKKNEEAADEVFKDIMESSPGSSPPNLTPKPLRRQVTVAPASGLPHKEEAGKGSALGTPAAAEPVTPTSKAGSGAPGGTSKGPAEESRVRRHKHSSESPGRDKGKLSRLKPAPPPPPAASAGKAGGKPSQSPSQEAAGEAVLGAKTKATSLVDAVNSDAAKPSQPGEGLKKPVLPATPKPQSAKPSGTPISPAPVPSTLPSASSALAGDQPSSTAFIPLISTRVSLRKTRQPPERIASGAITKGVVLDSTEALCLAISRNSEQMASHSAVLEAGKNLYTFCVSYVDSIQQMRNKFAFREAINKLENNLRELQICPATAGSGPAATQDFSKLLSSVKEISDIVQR

SMILES: COc1ccc(OC)c(CCC(=O)Nc2cc(-c3nc(SC)[nH]c3-c3ccc(F)cc3)ccn2)c1 [11b, 3-(2,5-Dimethoxyphenyl)-N-(4-(5-(4-fluorophenyl)-2-(methylthio)-1H-imidazol-4-yl)-pyridin-2-yl)-propanamide]
- remaining activity at 0.1 µM (ABL1): 100%
- remaining activity at 0.1 µM (ABL2): 91%
- remaining activity at 0.1 µM (ACV-R2A): 98%
- remaining activity at 0.1 µM (ALK (GST-HIS-tag)): 114%
- remaining activity at 0.1 µM (ARK5): 88%
- remaining activity at 0.1 µM (Aurora-A): 93%
- remaining activity at 0.1 µM (AXL): 104%
- remaining activity at 0.1 µM (BTK): 105%
- remaining activity at 0.1 µM (CAMK1D): 78%
- remaining activity at 0.1 µM (CAMK2A): 95%
- remaining activity at 0.1 µM (CAMK2B): 103%
- remaining activity at 0.1 µM (CAMK2D): 96%
- remaining activity at 0.1 µM (CAMK2G): 105%
- remaining activity at 0.1 µM (CAMK4): 95%
- remaining activity at 0.1 µM (CDC42BPA): 104%
- remaining activity at 0.1 µM (CDC42BPB): 88%
- remaining activity at 0.1 µM (CDK1/CycA2): 91%
- remaining activity at 0.1 µM (CDK1/CycB1): 95%
- remaining activity at 0.1 µM (CDK1/CycE1): 97%
- remaining activity at 0.1 µM (CDK2/CycA2): 87%
- remaining activity at 0.1 µM (CDK2/CycE1): 99%
- remaining activity at 0.1 µM (CDK4/CycD1): 98%
- remaining activity at 0.1 µM (CDK4/CycD3): 88%
- remaining activity at 0.1 µM (CDK9/CycK): 103%
- remaining activity at 0.1 µM (CDK9/CycT1): 93%
- remaining activity at 0.1 µM (CHK2): 98%
- Residual activity (%) (CK1-gamma3): unaffected
- remaining activity at 0.1 µM (CK1-gamma3; read-out: Residual activity (%)): 73%
- remaining activity at 0.1 µM (CK2-alpha1): 97%
- remaining activity at 0.1 µM (CK2-alpha2): 90%
- remaining activity at 0.1 µM (CLK1): 105%
- remaining activity at 0.1 µM (CSF1-R): 104%
- remaining activity at 0.1 µM (DAPK1): 96%
- remaining activity at 0.1 µM (DYRK1B): 101%
- remaining activity at 0.1 µM (DYRK2): 99%
- remaining activity at 0.1 µM (DYRK3): 97%
- remaining activity at 0.1 µM (EEF2K): 84%
- remaining activity at 0.1 µM (EGF-R): 113%
- remaining activity at 0.1 µM (EIF2AK3): 91%
- remaining activity at 0.1 µM (EPHA1): 104%
- remaining activity at 0.1 µM (EPHA2): 95%
- remaining activity at 0.1 µM (p38α MAPK): 22%
- remaining activity at 0.1 µM (JNK3): 37%
- remaining activity at 0.1 µM (LCK): 26%
